Laboratory results as given in US20220388969A1, “SUBSTITUTED 3,4-DIHYDROQ[…] THE TREATMENT AND PROPHYLAXIS OF HEPATITIS B VIRUS INFECTION” (priority 2019, published 2022).

Key:
[1] = system: HBeAg level in HepDES19 cells (surrogate marker for HBV cccDNA); test: Engineered HepDES19 primary screen assay (HBeAg as surrogate marker for cccDNA); assay type: cell-based; details: Hepatitis B virus, 120 h; HepDES19 cells, 5 days incubation with compound, HBeAg ELISA; read-out: IC50 (HBeAg level, HepDES19 primary screen assay)
From the text: The assay was employed to screen for novel cccDNA inhibitors. HepDES19 is a cccDNA-producing cell line. In this cell line, HBeAg in the cell culture supernatant as surrogate marker, as HBeAg production depends on cccDNA level and activity. HepDES19 is an engineered cell line which contains a 1.1 unit length HBV genome, and pgRNA transcription from the transgene is controlled by Tetracycline (Tet). In the absence of Tet, pgRNA transcription will be induced, but HBV e antigen (HBeAg) could not be produced from this pgRNA due to very short leader sequence before the HBeAg start codon and the start codon is disrupted. Only after cccDNA is formed, the missing leader sequence and start codon mutation would be restored from the 3′-terminal redundancy of pgRNA, and then HBeAg could be synthesized. Therefore, HBeAg could be used as a surrogate marker for cccDNA (Zhou, T. et al., Antiviral Res.(2006), 72(2), 116-124; Guo, H. et al., J. Virol. (2007), 81(22), 12472-12484).
HepDES19 cells were seeded at 2×10^6 cells per T150 flask and cultured with the culture medium (Dulbecco's Modified Eagle Medium: Nutrient Mixture F-12 [DMEM-F12, Gibco Cat. 11320-82], 10% Fetal Bovine Serum [FBS, Clontech Cat. 631101], 0.1 mM Non-Essential Amino Acids Solution [NEAA, Gibco Cat. 11140-050], 50 μg/mL Penicillin-Streptomycin [PS, Invitrogen Cat. 15140-163], 500 μg/mL Geneticin [G418, Invitrogen Cat. 10131-027]) containing 3 μg/mL Tet (Sigma, Cat. 87128) for 5 days. Cells were then seeded at 4×10^6 cells per T150 in the same culture medium as described above in the absence of Tet for 8 days. Cells were then harvested and frozen at density of 2×10^6 cells per mL. For compound testing, the frozen cells were thawed and seeded into 96-well plates at a density of 6 ×10^4 cells per well. At 24hours after seeding, half log serial dilutions of compounds made with Dimethyl sulfoxide (DMSO, Sigma, Cat. D2650) were further diluted with the same culture medium as described above before they were added to the cells to reach desired final compound concentrations and 1% DMSO concentration. Plates were then incubated at 37° C. for another 5 days before measurement of HBeAg level and cell viability. Intracellular HBeAg level were measured with enzyme-linked immunosorbent assay (ELISA) kit (Shanghai Kehua Diagnostic Medical Products Co., Ltd). Cell viability was assessed using Cell Counting Kit-8 (DonJindo, Cat. CK04-20). IC50 values were derived from the dose-response curve using 4 parameter logistic curve fit method.
The compounds of the present invention were tested for their capacity to inhibit extracellular HBeAg level as described herein.

[2] = system: HBsAg in HBV-infected primary human hepatocytes; test: Cryopreserved primary human hepatocytes (PHH) HBV infection assay, extracellular HBsAg; assay type: cell-based; details: Hepatitis B virus, Hepatocyte, 216 h, read-out: HBsAg IC50
Protocol: This assay is used to confirm the anti-HBV effect of the compounds in HBV PHH infection assay. Cryopreserved PHH (BioreclamationlVT, Lot YJM) was thawed at 37° C. and gently transferred into pre-warmed InVitroGRO HT medium (BioreclamationIVT, Cat. S03317). The mixture was centrifuged at 70 relative centrifugal force (RCF) for 3 minutes at RT, and the supernatant was discarded. Pre-warmed InVitroGRO CP medium (BioreclamationlVT, Cat# S03316) was added to the cell pellet to gently re-suspend cells. The cells were seeded at the density of 5.8×10^4 cells per well to collagen I coated 96-well plate (Gibco, Cat. A1142803) with the InVitroGRO CP medium. All plates were incubated at 37° C. with 5% CO2 and 85% humidity.
At 20 hours after plating, the medium was changed to PHH culture medium (Dulbecco's Modified Eagle Medium (DMEM)/F12 (1:1) (Gibco, Cat. 11320-033), 10% fetal bovine serum (Gibco Cat. 10099141), 100 U/mL penicillin, 100 μg/mL streptomycin (Gibco, Cat. 151401-122), 5 ng/mL human epidermal growth factor (Invitrogen Cat. PHG0311L), 20 ng/mL dexamethasone (Sigma, Cat. D4902) and 250 ng/mL human recombinant insulin (Gibco, Cat. 12585-014)). And the cells were incubated at 37° C. with 5% CO2 and 85% humidity for 4 hours. The medium was then changed to pre-warmed PHH culture medium containing 4% polyethylene glycol (PEG) MW8000 (Sigma, Cat. P1458-50ML) and 1% DMSO (Sigma, Cat. D2650). 5.8×10^6 genomic equivalents of HBV were added into the medium.
At 24 hours post-infection, the cells were gently washed with PBS and refreshed with PHH culture medium supplemented with 1% DMSO, and 0.25 mg/mL Matrix gel (Corning, Cat. 356237) at 200 μL per well. All plates were immediately placed in at 37° C. CO2 incubator.
24 hours later, serial dilutions of compounds made with DMSO were further diluted with the same culture medium (PHH culture medium supplemented with 1% DMSO and 0.25 mg/mL Matrix gel as described above) before they were added to the cells to reach desired final compound concentrations and 1% DMSO concentration. The medium containing the compounds were refreshed every three days.
At 9 days post-compound treatment, extracellular HBsAg level were measured with Chemiluminescence Immuno Assay (CLIA) kit (Autobio, HBsAg Quantitative CLIA).
HBsAg IC50 values were derived from the dose-response curve using 4 parameter logistic curve fit method. The compounds of formula (I) have HBsAg IC50<20 μM, particularly <1 μM.

Compound | IC50 [1] | IC50 [2]
CC1NC(c2ccc(OCCOC3CC(C(=O)O)C3)cc2)=Nc2cc(C(F)(F)F)ccc21 (stereo not shown) [Example 19, 3-[2-[4-[4-methyl-7-(trifluoromethyl)-3,4-dihydroquinazolin-2-yl]phenoxy]ethoxy]cyclobutanecarboxylic Acid] | 4.4 µM | 7.63 µM
NC(=O)C1NC(c2ccc(Br)cc2)=Nc2c(Cl)cccc21 (stereo not shown) [Example 13, 2-(4-bromophenyl)-8-chloro-3,4-dihydroquinazoline-4-carboxamide] | 0.07 µM | 2.84 µM
O=C(O)C1NC(c2ccc(Br)cc2)=Nc2cc(C(F)(F)F)ccc21 (stereo not shown) [Example 7, 2-(4-bromophenyl)-7-(trifluoromethyl)-3,4-dihydroquinazoline-4-carboxylic Acid] | 3.01 µM | 2.31 µM
Cc1cc(OCCOC2CC(C(=O)O)C2)ccc1C1=Nc2c(Cl)cccc2C(C)N1 (stereo not shown) [Example 22, 3-[2-[4-(8-chloro-4-methyl-3,4-dihydroquinazolin-2-yl)-3-methyl-phenoxy]ethoxy]cyclobutanecarboxylic Acid] | 8.43 µM | 0.67 µM
CC(C)C1NC(c2ccc(Br)cc2)=Nc2c(Cl)cccc21 (stereo not shown) [Example 36, 2-(4-bromophenyl)-8-chloro-4-isopropyl-3,4-dihydroquinazoline] | 6.53 µM | 0.042 µM
COc1ccc(C2=Nc3c(Cl)cccc3C(C(=O)NCCO)N2)cc1 (stereo not shown) [Example 16, 8-chloro-N-(2-hydroxyethyl)-2-(4-methoxyphenyl)-3,4-dihydroquinazoline-4-carboxamide] | 2.03 µM | 4.54 µM
COc1ccc(C2=Nc3c(Cl)cccc3C(C(=O)O)N2)cc1 (stereo not shown) [Example 4, 8-chloro-2-(4-methoxyphenyl)-3,4-dihydroquinazoline-4-carboxylic Acid] | 0.88 µM | 1.95 µM
O=C(O)C1NC(c2cccc(Br)c2)=Nc2cc(C(F)(F)F)ccc21 (stereo not shown) [Example 6, 2-(3-bromophenyl)-7-(trifluoromethyl)-3,4-dihydroquinazoline-4-carboxylic Acid] | 3.43 µM | 7.18 µM
O=C(O)C1NC(c2ccccc2)=Nc2c(Cl)cccc21 (stereo not shown) [Example 2, 8-chloro-2-phenyl-3,4-dihydroquinazoline-4-carboxylic Acid] | 2.99 µM | 0.415 µM
COC(=O)C1NC(c2ccc(Br)cc2)=Nc2c(Cl)cccc21 (stereo not shown) [Example 12, methyl 2-(4-bromophenyl)-8-chloro-3,4-dihydroquinazoline-4-carboxylate] | 0.33 µM | 1.36 µM
O=C(O)C1NC(c2ccc(Cl)cc2)=Nc2c(Cl)cccc21 (stereo not shown) [Example 3, 8-chloro-2-(4-chlorophenyl)-3,4-dihydroquinazoline-4-carboxylic Acid] | 10.3 µM | 1.5 µM
